How the values were obtained:
SW-620 = test: NCI anticancer screening, Colon Cancer SW-620; assay type: cell-based; details: Homo sapiens; SW-620, 10 μM; read-out: % Growth Inhibition (GI %)
Procedure, shortened: (§1)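 Processing was done per the standard DTP method, using the NCI-60 collection of human tumour cell lines.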

SK-MEL-2 = test: NCI anticancer screening, Melanoma SK-MEL-2; assay type: cell-based; details: Homo sapiens; SK-MEL-2, 10 μM; read-out: % Growth Inhibition (GI %)
Procedure, shortened: as §1

786-0 = test: NCI anticancer screening, Renal Cancer 786-0; assay type: cell-based; details: Homo sapiens; 786-0, 10 μM; read-out: % Growth Inhibition (GI %)
Procedure, shortened: as §1

OVCAR-4 = test: NCI anticancer screening, Ovarian Cancer OVCAR-4; assay type: cell-based; details: Homo sapiens; OVCAR-4, 10 μM; read-out: % Growth Inhibition (GI %)
Procedure, shortened: as §1

OVCAR-8 = test: NCI anticancer screening, Ovarian Cancer OVCAR-8; assay type: cell-based; details: Homo sapiens; OVCAR-8, 10 μM; read-out: % Growth Inhibition (GI %)
Procedure, shortened: as §1

ACHN = test: NCI anticancer screening, Renal Cancer ACHN; assay type: cell-based; details: Homo sapiens, read-out: % Growth Inhibition (GI %)
Procedure, shortened: as §1

SF-268 = test: NCI anticancer screening, CNS Cancer SF-268; assay type: cell-based; details: Homo sapiens; SF-268, 10 μM; read-out: % Growth Inhibition (GI %)
Procedure, shortened: as §1

SK-MEL-28 = test: NCI anticancer screening, Melanoma SK-MEL-28; assay type: cell-based; details: Homo sapiens; SK-MEL-28, 10 μM; read-out: % Growth Inhibition (GI %)
Procedure, shortened: as §1

RXF 393 = test: NCI anticancer screening, Renal Cancer RXF 393; assay type: cell-based; details: Homo sapiens; RXF 393, 10 μM; read-out: % Growth Inhibition (GI %)
Procedure, shortened: as §1

MDA-MB-435 = test: NCI anticancer screening, Melanoma MDA-MB-435; assay type: cell-based; details: Homo sapiens; MDA-MB-435, 10 μM; read-out: % Growth Inhibition (GI %)
Procedure, shortened: as §1

CAKI-1 = test: NCI anticancer screening, Renal Cancer CAKI-1; assay type: cell-based; details: Homo sapiens; CAKI-1, 10 μM; read-out: % Growth Inhibition (GI %)
Procedure, shortened: as §1

HCT-116 = test: NCI anticancer screening, Colon Cancer HCT-116; assay type: cell-based; details: Homo sapiens; HCT-116, 10 μM; read-out: % Growth Inhibition (GI %)
Procedure, shortened: as §1

BT-549 = test: NCI anticancer screening, Breast Cancer BT-549; assay type: cell-based; details: Homo sapiens; BT-549, 10 μM; read-out: % Growth Inhibition (GI %)
Procedure, shortened: as §1

DU-145 = test: NCI anticancer screening, DU-145; assay type: cell-based; details: Homo sapiens; DU-145, 10 μM; read-out: % Growth Inhibition (GI %)
Procedure, shortened: as §1

NCI-H460 = test: NCI anticancer screening, Non-Small Cell Lung Cancer NCI-H460; assay type: cell-based; details: Homo sapiens; NCI-H460, 10 μM; read-out: % Growth Inhibition (GI %)
Procedure, shortened: as §1

MOLT-4 = test: NCI anticancer screening, Leukemia MOLT-4; assay type: cell-based; details: Homo sapiens; MOLT-4, 10 μM; read-out: % Growth Inhibition (GI %)
Procedure, shortened: as §1

MALME-3M = test: NCI anticancer screening, Melanoma MALME-3M; assay type: cell-based; details: Homo sapiens, read-out: % Growth Inhibition (GI %)
Procedure, shortened: as §1

NCI/ADR-RES = test: NCI anticancer screening, Ovarian Cancer NCI/ADR-RES; assay type: cell-based; details: Homo sapiens, read-out: % Growth Inhibition (GI %)
Procedure, shortened: as §1

SNB-19 = test: NCI anticancer screening, CNS Cancer SNB-19; assay type: cell-based; details: Homo sapiens; SNB-19, 10 μM; read-out: % Growth Inhibition (GI %)
Procedure, shortened: as §1

RPMI-8226 = test: NCI anticancer screening, Leukemia RPMI-8226; assay type: cell-based; details: Homo sapiens; RPMI-8226, 10 μM; read-out: % Growth Inhibition (GI %)
Procedure, shortened: as §1

TK-10 = test: NCI anticancer screening, Renal Cancer TK-10; assay type: cell-based; details: Homo sapiens; TK-10, 10 μM; read-out: % Growth Inhibition (GI %)
Procedure, shortened: as §1

UO-31 = test: NCI anticancer screening, Renal Cancer UO-31; assay type: cell-based; details: Homo sapiens; UO-31, 10 μM; read-out: % Growth Inhibition (GI %)
Procedure, shortened: as §1

PC-3 cells = test: MTT assay anticancer activity, PC-3; assay type: cell-based; details: Homo sapiens, PC-3, 5 µM, mean ± SEM, read-out: growth inhibition percentage of PC-3
From the text: MTT method was done as described above.

EKVX = test: NCI anticancer screening, Non-Small Cell Lung Cancer EKVX; assay type: cell-based; details: Homo sapiens, read-out: % Growth Inhibition (GI %)
Procedure, shortened: as §1

IGROV1 = test: NCI anticancer screening, Ovarian Cancer IGROV1; assay type: cell-based; details: Homo sapiens, IGROV-1; IGROV1, 10 μM; read-out: % Growth Inhibition (GI %)
Procedure, shortened: as §1

SR = test: NCI anticancer screening, Leukemia SR; assay type: cell-based; details: Homo sapiens, read-out: % Growth Inhibition (GI %)
Procedure, shortened: as §1

M14 = test: NCI anticancer screening, Melanoma M14; assay type: cell-based; details: Homo sapiens; M14, 10 μM; read-out: % Growth Inhibition (GI %)
Procedure, shortened: as §1

SNB-75 = test: NCI anticancer screening, CNS Cancer SNB-75; assay type: cell-based; details: Homo sapiens; SNB-75, 10 μM; read-out: % Growth Inhibition (GI %)
Procedure, shortened: as §1

HOP-92 = test: NCI anticancer screening, Non-Small Cell Lung Cancer HOP-92; assay type: cell-based; details: Homo sapiens; HOP-92, 10 μM; read-out: % Growth Inhibition (GI %)
Procedure, shortened: as §1

K-562 = test: NCI anticancer screening, Leukemia K-562; assay type: cell-based; details: Homo sapiens, K562; K-562, 10 μM; read-out: % Growth Inhibition (GI %)
Procedure, shortened: as §1

CCRF-CEM = test: NCI anticancer screening, Leukemia CCRF-CEM; assay type: cell-based; details: Homo sapiens, read-out: % Growth Inhibition (GI %)
Procedure, shortened: as §1

OVCAR-5 = test: NCI anticancer screening, Ovarian Cancer OVCAR-5; assay type: cell-based; details: Homo sapiens; OVCAR-5, 10 μM; read-out: % Growth Inhibition (GI %)
Procedure, shortened: as §1

HCC-2998 = test: NCI anticancer screening, Colon Cancer HCC-2998; assay type: cell-based; details: Homo sapiens; HCC-2998, 10 μM; read-out: % Growth Inhibition (GI %)
Procedure, shortened: as §1

MDA-MB 231 cells = details: for inhibition: 5 µM
HOP-62 = test: NCI anticancer screening, Non-Small Cell Lung Cancer HOP-62; assay type: cell-based; details: Homo sapiens; HOP-62, 10 μM; read-out: % Growth Inhibition (GI %)
Procedure, shortened: as §1

UACC-257 = test: NCI anticancer screening, Melanoma UACC-257; assay type: cell-based; details: Homo sapiens; UACC-257, 10 μM; read-out: % Growth Inhibition (GI %)
Procedure, shortened: as §1

SMILES | inhibition at 10 µM (SW-620) | inhibition at 10 µM (SK-MEL-2) | inhibition at 10 µM (786-0) | inhibition at 10 µM (OVCAR-4) | inhibition at 10 µM (OVCAR-8) | inhibition at 10 µM (ACHN) | inhibition at 10 µM (SF-268) | inhibition at 10 µM (SK-MEL-28) | inhibition at 10 µM (RXF 393) | inhibition at 10 µM (MDA-MB-435) | inhibition at 10 µM (CAKI-1) | inhibition at 10 µM (HCT-116) | inhibition at 10 µM (BT-549) | inhibition at 10 µM (DU-145) | inhibition at 10 µM (NCI-H460) | inhibition at 10 µM (MOLT-4) | inhibition at 10 µM (MALME-3M) | inhibition at 10 µM (NCI/ADR-RES) | inhibition at 10 µM (SNB-19) | inhibition at 10 µM (RPMI-8226) | other results
O=C(c1nc2ccccc2[nH]1)[C@H]1[C@H](c2ccc(C(F)(F)F)cc2)C2CSCN2[C@]12C(=O)Nc1ccccc12 (stereo partly drawn) [Compound 6c, (3S,6′R)-6'-(1H-Benzo [d]imidazole-2-carbonyl)-7'-(4-(trifluoromethyl)phenyl)-3′,6′,7′,7a′-tetrahydro-1′H-spiro [indoline-3.5′-pyrrolo [1,2-c]thiazol]-2-one] | 84.1% | 108% | 99.4% | 80.9% | 98.8% | 89.6% | 90.2% | 97.7% | 90.1% | 88.3% | 78.6% | 60% | 107% | 97% | 66.8% | 82.7% | 94.9% | 86% | 84.9% | 72% | inhibition at 10 µM (TK-10): 120%; inhibition at 10 µM (UO-31): 55.4%; inhibition at 5 µM (PC-3 cells): 54.1 ± 1.35%; inhibition at 10 µM (EKVX): 87%; inhibition at 10 µM (IGROV1): 67.8%; inhibition at 10 µM (SR): 85.6%; inhibition at 10 µM (M14): 83.3%; inhibition at 10 µM (SNB-75): 72.9%; inhibition at 10 µM (HOP-92): 109%; inhibition at 10 µM (K-562): 83.1%; inhibition at 10 µM (CCRF-CEM): 95%; inhibition at 10 µM (OVCAR-5): 96.1%; inhibition at 10 µM (HCC-2998): 99.6%; IC50 (MDA-MB 231 cells): 3.34 ± 0.21 µM; inhibition (MDA-MB 231 cells): 55.5 ± 2.5%; inhibition at 10 µM (HOP-62): 89.5%; inhibition at 10 µM (UACC-257): 98.5%
O=C(c1nc2ccccc2[nH]1)[C@H]1[C@H](c2ccc(Br)cc2)C2CSCN2[C@]12C(=O)Nc1ccccc12 (stereo partly drawn) [Compound 6l, (3S,6′R)-6'-(1H-Benzo [d]imidazole-2-carbonyl)-7'-(4-bromophenyl)-3′,6′,7′,7a′-tetrahydro-1′H-spiro [indoline-3.5′-pyrrolo [1,2-c]thiazol]-2-one] | 80.7% | 107% | 91.5% | 70.8% | 89.8% | 74.6% | 71.5% | 84.8% | 62.1% | 67.9% | 60.3% | 59.2% | 90.2% | 97.1% | 66.2% | 56.3% | 78.5% | 83.2% | 67% | 61.3% | inhibition at 10 µM (TK-10): 145%; inhibition at 10 µM (UO-31): 48.6%; inhibition at 5 µM (PC-3 cells): 55.1 ± 1.98%; inhibition at 10 µM (EKVX): 68.8%; inhibition at 10 µM (IGROV1): 63.6%; inhibition at 10 µM (SR): 54.1%; inhibition at 10 µM (M14): 68.6%; inhibition at 10 µM (SNB-75): 68%; inhibition at 10 µM (HOP-92): 96.9%; inhibition at 10 µM (K-562): 74.5%; inhibition at 10 µM (CCRF-CEM): 88.2%; inhibition at 10 µM (OVCAR-5): 95.9%; inhibition at 10 µM (HCC-2998): 79.4%; IC50 (MDA-MB 231 cells): 4.51 ± 0.203 µM; inhibition (MDA-MB 231 cells): 53.59 ± 0.109%; inhibition at 10 µM (HOP-62): 88.7%; inhibition at 10 µM (UACC-257): 77.9%
